Data set [1] can be described thus: Solubility assay by visual observation and manual dilution. It counts as physicochemical. The following applies: thermodynamic from solid, room temperature. How it is done:
Solubility assay was performed by visual observation and manual dilution at room temperature. […] The total amount of the solvent was recorded to calculate the solubility for each solvent.

Data set [2] can be described thus: Crystalline form change on storage at room temperature (XRPD). The class given is physicochemical. How it is done:
The X-ray powder diffraction (XRPD) pattern was obtaine d on a Shimadzu XRD-6000 instrument.
• Tube: Cu: K-α (λ=1.54056 Å) • Generator: Voltage: 40 kV; Current: 30 mA • Scan Scope: 3˜50 deg. Scanning rate: 5 deg./min
[…] Particularly, XRPD was performed according to the method described in <Experimental Methods> 1. X-ray Powder Diffractometer (XRPD).

The mark [3] stands for this setting: stored at room temperature for 2 months.
Where [4] appears, read: stored at room temperature for 3 months.

Values after ≈ are worked out from the molar mass of the structure shown. Some results are limits rather than exact numbers.

Results on three compounds are retold here after patent US12103945B2, “Crystalline form of vascular leakage blocker compound” (Curacle Co., Ltd., priority 2020, dated 2024).

Usually solubility stands for the concentration that dissolves in the medium under given conditions. In the case of `COC(=O)CCC/C=C(\C)[C@H]1CC[C@H]2[C@@H]3CC=C4C[C@@H](OC5C=C[C@H](OC(C)=O)[C@@H](COC(C)=O)O5)CC[C@]4(C)[C@H]3CC[C@]12C` (stereo partly drawn) [compound 1, (E)-methyl 6-((3S,8S,9S,10R,13S,14S,17R)-3-(((5S,6R)-5-acetoxy-6-(acetoxymethyl)-5,6-dihydro-2H-pyran-2-yl)oxy)-10,13-dimethyl-2,3,4,7,8,9,10,11,12,13,14,15,16,17-tetradecahydro-1H-cyclopenta[a]phenanthrene-17-yl)hept-5-enoate], the solubility in data set [1] (organic solvent or mixture, solvent 1,4-dioxane) was greater than 100 mg/mL; in data set [1] (organic solvent or mixture, solvent 1-butanol), 26 to 52 mg/mL (≈ 41.5 to 83 mM); in data set [1] (organic solvent or mixture, solvent 2-methyl-tetrahydrofuran), greater than 93.2 mg/mL; in data set [1] (organic solvent or mixture, solvent Acetone) it was greater than 100 mg/mL; in data set [1] (organic solvent or mixture, solvent Acetonitrile (ACN)), greater than 82.6 mg/mL; in data set [1] (organic solvent or mixture, solvent Anisole), greater than 100 mg/mL. Moreover, the solubility is greater than 88.6 mg/mL in data set [1] (organic solvent or mixture, solvent Butyl acetate); greater than 100 mg/mL in data set [1] (organic solvent or mixture, solvent Chloroform); 26 to 40 mg/mL (≈ 41.5 to 63.8 mM) in data set [1] (organic solvent or mixture, solvent Cyclohexane); greater than 100 mg/mL in data set [1] (organic solvent or mixture, solvent Dichloromethane (DCM)); 30 to 45 mg/mL (≈ 47.9 to 71.8 mM) in data set [1] (organic solvent or mixture, solvent Dimethyl sulfoxide (DMSO)); 5.1 to 6.4 mg/mL (≈ 8.14 to 10.2 mM) in data set [1] (organic solvent or mixture, solvent Ethanol (EtOH)). In addition, the solubility in data set [1] (organic solvent or mixture, solvent Ethyl acetate (EtOAc)) is greater than 100 mg/mL; in data set [1] (organic solvent or mixture, solvent Isopropanol (IPA)), 5.1 to 6.8 mg/mL (≈ 8.14 to 10.8 mM); in data set [1] (organic solvent or mixture, solvent Isopropyl acetate (iPrOAc)), greater than 100 mg/mL; in data set [1] (organic solvent or mixture, solvent Isopropyl ether), 65.2 to 130 mg/mL (≈ 104 to 208 mM); in data set [1] (organic solvent or mixture, solvent Methanol (MeOH)), 6.9 to 8.2 mg/mL (≈ 11 to 13.1 mM); in data set [1] (organic solvent or mixture, solvent Methyl ethyl ketone (MEK)), greater than 100 mg/mL. Moreover, the solubility in data set [1] (organic solvent or mixture, solvent Methyl tert-butyl ether (MTBE)) was greater than 85.4 mg/mL; in data set [1] (organic solvent or mixture, solvent N,N-dimethylformamide (DMF)), greater than 100 mg/mL; in data set [1] (organic solvent or mixture, solvent Petroleum ether) it was 11.5 to 15.3 mg/mL (≈ 18.3 to 24.4 mM); in data set [1] (organic solvent or mixture, solvent Tetrahydrofuran (THF)) it was greater than 76 mg/mL; in data set [1] (organic solvent or mixture, solvent Toluene) it was greater than 83 mg/mL; in data set [1] (organic solvent or mixture, solvent n-heptane), 6.3 to 8.8 mg/mL (≈ 10.1 to 14 mM). In addition, the solubility in data set [1] (organic solvent or mixture, solvent n-propanol) was 26.1 to 52.1 mg/mL (≈ 41.6 to 83.1 mM); in data set [1] (solvent Water (H2O)) it was less than 1 mg/mL.

Consider `COC(=O)CCC/C=C(\C)[C@H]1CC[C@H]2[C@@H]3CC=C4C[C@@H](O[C@@H]5C=C[C@H](OC(C)=O)[C@@H](COC(C)=O)O5)CC[C@]4(C)[C@H]3CC[C@]12C` [crystalline form V, (E)-methyl 6-((3S,8S,9S,10R,13S,14S,17R)-3-(((2S,5S,6R)-5-acetoxy-6-(acetoxymethyl)-5,6-dihydro-2H-pyran-2-yl)oxy)-10,13-dimethyl-2,3,4,7,8,9,10,11,12,13,14,15,16,17-tetradecahydro-1H-cyclopenta[a]phenanthrene-17-yl)hept-5-enoate], for which the “Change of crystalline form (XRPD pattern)” value in data set [2] (setting [3]) and in data set [2] (setting [4]) was “a novel crystalline form having the XRPD pattern different from that of the crystalline form V was confirmed” throughout.

As for `COC(=O)CCC/C=C(\C)[C@H]1CC[C@H]2[C@@H]3CC=C4C[C@@H](O[C@@H]5C=C[C@H](OC(C)=O)[C@@H](COC(C)=O)O5)CC[C@]4(C)[C@H]3CC[C@]12C` [crystalline form IV, (E)-methyl 6-((3S,8S,9S,10R,13S,14S,17R)-3-(((2S,5S,6R)-5-acetoxy-6-(acetoxymethyl)-5,6-dihydro-2H-pyran-2-yl)oxy)-10,13-dimethyl-2,3,4,7,8,9,10,11,12,13,14,15,16,17-tetradecahydro-1H-cyclopenta[a]phenanthrene-17-yl)hept-5-enoate], the “Change of crystalline form (XRPD pattern)” value in data set [2] (setting [3]) and in data set [2] (setting [4]) was “a novel crystalline form having the XRPD pattern different from that of the crystalline form IV was confirmed” each time.
